According to patent publication US11357806B2, “Method of isolating sphingolipids from cordyceps and their use” (Macau University of Science and Technology, priority 2015, dated 2022):
Where two headings read alike, the source gives them in different places.

Columns and labels:
[1] = tested on: LPS-induced splenic lymphocytes; experiment: LPS-induced primary splenocyte proliferation model (MTT, immunosuppressive activity assay); format: cell-based, ICR mice; details: Mus musculus, Splenic lymphocyte, LPS 2.5 mg/L, 48 h culture, read-out: IC50 (concentration that reduced cell proliferation by 50%)
Method: (§1) Male ICR mice (Weight, 10 to 22 g) were provided by the Comparative Medicine Center of Yangzhou University. The animal studies were approved by the Animal Ethics Committee of China Pharmaceutical University. The animals were cared for according to the regulations of the Animal Committee.
(§2) ICR mice were killed by cervical dislocation, and the spleens were removed aseptically. Mononuclear cell suspensions were prepared and re-suspended in RPMI 1640 medium (containing 10% FBS). The resulting splenic lymphocytes suspensions (4×10^6 cells/mL) were cultured in 96-well plate (100 μL suspensions each well). In the control group, 100 μL 10% FBS in RPMI1640 was added into each well (five replicates of wells). In the LPS or Con A model group, 100 μL LPS or Con A (2.5 mg/L of final concentration) was added into each well (five replicates of wells). For the positive drug treatment group, 50 μL of LPS or Con A (2.5 mg/L of final concentration) and 50 μL of FTY720 with a set of final concentrations (0.001, 0.003, 0.01, 0.03, 0.1, 0.3, 1, 3 and 10 μM) were added into each well. In the test group, 50 μL of LPS or Con A (2.5 mg/L of final concentration) and 50 μL of the four SPL fractions with a set of final concentrations were added into each well. […] Then the OD490 readings were taken with a microplate reader (Bio Tek, Tigan Street Winooski, Vt., USA). […]

[2] = tested on: Con A-induced splenic lymphocytes; experiment: Con A-induced primary splenocyte proliferation model (MTT, immunosuppressive activity assay); format: cell-based, ICR mice; details: Mus musculus, Splenic lymphocyte, Con A 2.5 mg/L, 48 h culture, read-out: IC50 (concentration that reduced cell proliferation by 50%)
Method: as §1, §2

For `CCCCCCCCc1ccc(CCC(N)(CO)CO)cc1` [FTY720], the IC50 [1] was 0.15 µg/mL, the IC50 ([1]; value in brackets) was 430 nM and the IC50 [2] was 0.11 µg/mL. For the same compound, the IC50 ([2]; value in brackets) was 310 nM.
